Source: patent US10766908B2, “Calcium L-lactate frameworks as naturally degradable carriers” (priority 2017, dated 2020)

Test: Slow release of cis-1,3-dichloropropene under air flow, sample weight monitored by thermogravimetric instrument
Assay type: physicochemical
Settings: air flow of 1.0 cm^3 min^−1, 25° C.
Method: Here we present the use of MOF-1201 for this purpose Fumigant cis-1,3-dichloropropene has been chosen as an example. Static adsorption isotherm of cis-1,3-dichloropropene in MOF-1201 at 25° C. is shown in FIG. 3c, displaying a sharp uptake of 1.4 mmol g^−1 (13 wt %) in low partial pressure range (P/P0=0.1), attributed to adsorption within the micropores. […] In contrast, the cis-1,3-dichloropropene encapsulated in MOF-1201 released in a much slower manner, with 80% of the total (10.5 wt %) released in 100,000 min g^−1, corresponding to 100 times slower compared with liquid cis-1,3-dichloropropene under the same conditions.
Slow release experiments were carried out using the TA Q500 thermal analysis system under constant air flow rate of 1 cm^3 min ^−1.

Structure (SMILES): Cl/C=C\CCl [liquid cis-1,3-dichloropropene, cis-1,3-dichloropropene]
- time for 80% of the total weight to be released/evaporated: ≤ 1,000 min g^−1
